Each structure is given as a SMILES string.

This experiment deals with Human CTPS1 versus CTPS2. Put plainly: RapidFire/MS-based enzyme selectivity assay, human CTPS1 versus CTPS2. Format: biochemical. As to conditions: calculated from RF/MS IC50 values for human CTPS1 and CTPS2. The method, then:
Human CTPS1 versus CTPS2 Selectivity Assessment by RapidFire/MS Analysis.
The enzyme inhibitory activities against each target isoform of interest may be determined for the compounds of the invention using an optimised RapidFire high-throughput mass spectrometry (RF/MS) assay format. RF/MS assays for both human CTPS1 and CTPS2 may be performed in assay buffer consisting of 50 mM HEPES (Merck), 20 mM MgCl2, 5 mM KCl, 1 mM DTT, 0.01% Tween-20, pH to 8.0 accordingly. Human full-length active C-terminal FLAG-His-tag CTPS1 (UniProtKB-P17812, CTPS[1-591]-[…]) may be obtained from Proteros biostructures GmbH. Human full length active C-terminal FLAG-His-Avi tagged CTPS2 (UniProtKB-Q9NRF8, CTPS2 [1-586]-[…]) may be obtained from Harker Bio.
Human CTPS (1 or 2) protein may be prepared in 1× assay buffer to the final working protein concentration required for the reaction. A 2 uL volume per well of 2×CTPS (1 or 2) protein may be mixed with 40 nL of compound using acoustic (ECHO) delivery and incubated for 10 minutes at 25° C. Each isoform enzymatic reaction may be subsequently initiated by addition of 2 uL per well of a 2× substrate mix in assay buffer. For hCTPS1: ATP (0.3 mM), UTP (0.2 mM), GTP (0.07 mM) and L-glutamine (0.1 mM). For hCTPS2: ATP (0.1 mM), UTP (0.04 mM), GTP (0.03 mM) and L-glutamine (0.1 mM). Each mixture may be incubated for an appropriate amount of time per isoform within the determined linear phase of the reaction at 25° C. A 60 uL volume of stop solution (1% formic acid with 0.5 uM ^13C9-^15N3-CTP in H20) may be added and the plate immediately heat-sealed and centrifuged for 10 minutes at 4,000 rpm. Following centrifugation, plates may be loaded onto the Agilent RapidFire microfluidic solid phase extraction system coupled to an API4000 triple quadrupole mass spectrometer (RF/MS) for analysis.
In all cases, the enzyme converts UTP to CTP. Highly specific and sensitive multiple reaction monitoring (MRM) MS methods may be optimised for the detection of the enzymatic reaction product, CTP, and the stable isotope labelled product standard ^13C9-^15N3-CTP. Readout for data analysis may be calculated as the ratio between the peak area of the product CTP and the internal standard ^13C9-^15N3-CTP. For data reporting, the following equation may be used: […]
For each screening plate, the means of the negative (DMSO) and positive control values were used for the calculation of the respective assay window (S/B) and Z′ values. The median of the respective control values was used for calculation of percent inhibition according to the following equation: […]
Percentage inhibition was then plotted against compound concentration, and the 50% inhibitory concentration (IC50) was determined from the resultant concentration-response curve.
Fold selectivity between CTPS1 and CTPS2 was subsequently calculated according to the following equation: […]
As for `CCOc1cncc(-c2ccc(NC(=O)C(F)(CC)c3cncc(NS(=O)(=O)C4CC4)n3)nc2)n1` (single isomer, unassigned) [P207, 2-(6-(cyclopropanesulfonamido)pyrazin-2-yl)-N-(5-(6-ethoxypyrazin-2-yl)pyridin-2-yl)-2-fluorobutanamide], the “Selectivity (fold selectivity between CTPS1 and CTPS2)” value is recorded as “+ (2-30 fold (+))”.
Next, `CCOc1cncc(-c2ccc(NC(=O)C(F)(CC)c3ccnc(NS(=O)(=O)C4CC4)n3)nc2)n1` (single isomer, unassigned) [P113, 2-(2-(Cyclopropanesulfonamido)pyrimidin-4-yl)-N-(5-(6-ethoxypyrazin-2-yl)pyridin-2-yl)-2-fluorobutanamide]: “+ (2-30 fold (+))”; `CCOc1cncc(-c2ccc(NC(=O)C3(c4ccnc(NS(=O)(=O)C5CC5)n4)CCCC3)nc2)n1` [P136, 1-(2-(cyclopropanesulfonamido)pyrimidin-4-yl)-N-(5-(6-ethoxypyrazin-2-yl)pyridin-2-yl)cyclopentane-1-carboxamide]: “+++ (>60 fold (+++))”.
For the compound `CCOc1cncc(-c2ccc(NC(=O)C3(c4ccnc(NS(=O)(=O)C5CC5)n4)CCOCC3)c(F)c2)n1` [P143, 4-(2-(cyclopropanesulfonamido)pyrimidin-4-yl)-N-(4-(6-ethoxypyrazin-2-yl)2-fluorophenyl)tetrahydro-2H-pyran-4-carboxamide], the “Selectivity (fold selectivity between CTPS1 and CTPS2)” value was “+++ (>60 fold (+++))”.
For `CCOc1cncc(-c2ccc(NC(=O)C(F)(CC)c3cncc(NS(=O)(=O)C4CC4)n3)nc2)n1` (single isomer, unassigned) [P206, 2-(6-(cyclopropanesulfonamido)pyrazin-2-yl)-N-(5-(6-ethoxypyrazin-2-yl)pyridin-2-yl)-2-fluorobutanamide], the “Selectivity (fold selectivity between CTPS1 and CTPS2)” value is “+++ (>60 fold (+++))”.
In the case of `CCOc1cncc(-c2ccc(NC(=O)C3(c4ccnc(NS(=O)(=O)C5CC5)n4)CCOCC3)nc2)n1` [P115, 4-(2-(Cyclopropanesulfonamido)pyrimidin-4-yl)-N-(5-(6-ethoxypyrazin-2-yl)pyridin-2-yl)tetrahydro-2H-pyran-4-carboxamide], the “Selectivity (fold selectivity between CTPS1 and CTPS2)” value is listed as “+++ (>60 fold (+++))”.
Turning to `CCOc1cncc(-c2ccc(NC(=O)C3(c4cncc(NS(=O)(=O)C5CC5)n4)CCOCC3)nc2)n1` [P197], the “Selectivity (fold selectivity between CTPS1 and CTPS2)” value is “+++ (>60 fold (+++))”.
In the case of `CCOc1cncc(-c2ccc(NC(=O)C(CCOC)c3ccnc(NS(=O)(=O)C4CC4)n3)nc2)n1` (stereo not drawn) [P145, 2-(2-(cyclopropanesulfonamido)pyrimidin-4-yl)-N-(5-(6-ethoxypyrazin-2-yl)pyridin-2-yl)-4-methoxybutanamide], the “Selectivity (fold selectivity between CTPS1 and CTPS2)” value is reported as “+++ (>60 fold (+++))”.
Next, `CCOc1cncc(-c2ccc(NC(=O)C(F)(CC)c3ccnc(NS(=O)(=O)C4CC4)n3)nc2)n1` (single isomer, unassigned) [P114, 2-(2-(Cyclopropanesulfonamido)pyrimidin-4-yl)-N-(5-(6-ethoxypyrazin-2-yl)pyridin-2-yl)-2-fluorobutanamide]: “+++ (>60 fold (+++))”.

Values taken from patent US12371419B2, “Aminopyrimidine/pyrazine derivatives as CTPS1 inhibitors” (Step Pharma S.A.S., priority 2018, dated 2025).
